Here are results for 1 compound from patent US6740038B2, “Systems and methods for assessing vascular effects of a treatment” (New Health Sciences, Inc., priority 2000, dated 2004).

This experiment has as its system cerebral vessels. The note with it: person after first stroke, Plavix +/- calcium channel blocker. The procedure:
A person with a history of hypertension experiences a first stroke in the left middle cerebral artery resulting in deficits in the right hand, leg, and some deficits in motor speech. These are the symptoms upon presentation in the neurological clinic. Transcranial Doppler analysis of all cerebral vessels is performed in addition to analyzing the common carotid artery and the internal carotid artery.
The physician considers prescription of Plavix together with a calcium channel blocker. Transcranial Doppler analysis was performed at monthly intervals. […] The physician subsequently administers a higher dose. Again, transcranial Doppler analysis is performed on all cerebral vessels.
The patient is then monitored on a monthly basis after the initial prescription of Plavix in order to determine whether vascular changes are occurring which necessitate alteration in the therapy.

For the compound `COC(=O)[C@H](c1ccccc1Cl)N1CCc2sccc2C1` [Plavix], where the note is “higher dose”, the auto-regulation curve entry is on record as “left-shifts toward normal”, the pulsatility index entry is on record as “decreases” and the “vascular dynamics of the vessel studied” value is on record as “marked changes”. Under “initial dose, transcranial Doppler at monthly intervals”, the “changes in the individual cerebral vessels” value is given as “no effect”.
